Laboratory results taken from patent US20130336988A1, “METHODS FOR TREATING EARLY STAGE OR MILD NEUROLOGICAL DISORDERS” (NEW YORK UNIVERSITY, priority 2010, published 2013).

System: E15 DIV3 mouse hippocampal neurons
Experiment: proNT-induced growth cone collapse in cultured hippocampal neurons (live imaging and immunofluorescence)
Assay type: cell-based
Conditions: for growth cone collapse: p75NTR-positive cells, 20 min exposure, 10 ng/ml proNGF, 10 ng/ml proBDNF with K252a, 5 ng/ml NGF
Protocol: To assay which pathways are involved in filopodial collapse, 5-10 ng/ml proNGF, 10 ng/ml proBDNF, 25-50 ng/ml BDNF (Peprotech) or 25-100 ng/ml NGF (Harlan) was added to E15 primary hippocampal neurons for 20 min before fixation. In some cases, cells were pretreated with 100 nM K-252a (Calbiochem) for 20 min, 100 nM Gö6976 (Calbiochem) for 1 hour, 5 μM EHT1864 (Sigma) for 30 min or 100 nM ITX3 (ChemBridge Corporation, cat. no. 6007262) for 45 min. To block SorCS2, cells were incubated with 20 μg/ml anti-SorCS2 or control IgG for 20 min on ice before proNGF addition at 37° C.
DIV3 hippocampal neurons were fixed in 4% paraformaldehyde/20% sucrose for 10 min. The fixative was quenched with 50 mM NH4Cl in PBS for 5 min and cells were permeabilized with 0.1% TritonX-100 in PBS for 2 min. Alternatively, cells were fixed with ice-cold methanol for 5 min. Coverslips were blocked with 10% normal donkey serum, 2% bovine serum albumin and 0.25% fish skin gelatin in Tris-buffered saline for 30 min, incubated with primary antibodies diluted in blocking solution for 30 min, washed three times with Tris-buffered saline/0.25% fish skin gelatin, incubated with secondary antibodies mixed with Hoechst in blocking buffer for additional 30 min, washed and mounted using Mowio1488. Cells were imaged using a LSM510 laser-scanning confocal microscope equipped with a 40× Plan Neofluor NA1.3 DIC oil-immersion objective (Carl Zeiss Microimaging). Images were processed using LSM510 software (Zeiss) and ImageJ (NIH).
Cells were plated on gridded glass bottom dishes (MatTek Corporation) and imaged at DIV3 in phenol red-free Neurobasal medium (Invitrogen) supplemented with 30 mM HEPES-NaOH, pH7.4 using an Olympus IX71 inverted microscope driven by IPLab software (BD Biosciences) and equipped with a 60× PlanApoN objective (NA 1.42), a Hamamatsu EM-CCD camera and a heated stage maintained at 37° C., or driven by softWoRX software (version 3.7.1, DeltaVision), and equipped with a CoolSnap HQ2 camera (Photometrics) and an environmental chamber maintained at 37° C. Images were taken every 15 seconds. After live imaging cells were fixed, counterstained for p75, located by grid number and examined for p75 expression. All movies were exported and processed using IPLab (BD Biosciences), softWoRX (version 3.7.1, DeltaVision) and ImageJ (NIH) software. Filopodia length and speed were both analyzed using ImageJ (NIH) software. For this, two times ten consecutive frames, spaced 5-10 min apart, were analyzed before and again after treatment. In the length analysis, a line was drawn along an individual filopodium and measured at every time point, and the measurements were averaged before and after treatment. For the speed analysis, the filopodial tip was tracked using the ImageJ Manual Tracking plugin. Up to four individual filopodia were analyzed per movie, and a minimum of four movies taken from separate experiments were analyzed per condition.
Primary hippocampal and cortical neurons were isolated from E15 C57BL/6 mouse embryos as previously described (PEREIRA, D. B. et al., Journal of Neuroscience 27:4859-4869 (2007)). Briefly, neurons were dissociated by incubation with 0.05% trypsin at 37° C. for 8 min followed by trituration with fire-polished glass Pasteur pipettes. Cells were plated on poly-D-lysine coated dishes and grown in Neurobasal medium containing B27, 0.5 mM glutamine (all Invitrogen) and 10 μM 5-fluorodeoxyuridine. Hippocampal neurons were transfected at DIV2 using Lipofectamine2000 (Invitrogen). For coverslips in a 24-well plate, 0.5 μg plasmid were mixed with 0.5 μl Lipofectamine2000, and for glass bottom dishes, 1.5 μg plasmid were mixed with 1.5 μl Lipofectamine2000. The complexes were added to the cells for 30-45 min, and then neurons were placed back into preconditioned media until analysis the following day. […]

Molecule	growth cone collapse in neurons from p75NTR-/- mice (live imaging of LifeAct-RFP transfected neurons from p75 null mice (not shown))	localisation of endogenous Trio (p75NTR-positive E15 DIV3 hippocampal neurons, immunostaining)	growth cone collapse
proNGF: proneurotrophin precursor of nerve growth factor, produced in Sf9 cells and purified	growth cone collapse was never observed	redistribution of Trio along the neuritis	comparable in inducing growth cone collapse
proBDNF: murine proBDNF collected from supernatants of transfected 293 cells (protein) APMKEVNVHGQGNLAYPGVRTHGTLESVNGPRAGSRGLTTTSLADTFEHVIEELLDEDQKVRPNEENHKDADLYTSRVMLSSQVPLEPPLLFLLEEYKNYLDAANMSMRVRRHSDPARRGELSVCDSISEWVTAADKKTAVDMSGGTVTVLEKVPVSKGQLKQYFYETKCNPMGYTKEGCRGIDKRHWNSQCRTTQSYVRALTMDSKKRIGWRFIRIDTSCVCTLTIKRGR			comparable in inducing growth cone collapse
